Data: ChEMBL document CHEMBL1201862, “PubChem BioAssay data set” (2004)
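Grown in 96-well plates, cells were treated for 48 hours with each compound at five concentrations. Insufficient inhibition: endpoint recorded as highest concentration tested. GI50 is the concentration that inhibits growth by half.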 The source made the active and inactive calls. Cut-off read from the data, not from the text of the source: active = GI50 up to about 1.1 µM and inactive = higher.

How the values were obtained:
Assay in all cases: NCI-60 cell line screen, 48 h
[1] = tested on: 786-0
[2] = tested on: A498
[3] = tested on: A549
[4] = tested on: ACHN
[5] = tested on: BT-549
[6] = tested on: CAKI-1
[7] = tested on: CCRF-CEM
[8] = tested on: COLO 205
[9] = tested on: DU-145
[10] = tested on: EKVX
[11] = tested on: HCC 2998
[12] = tested on: HCT-116
[13] = tested on: HCT-15
[14] = tested on: HL-60
[15] = tested on: HOP-62
[16] = tested on: HOP-92
[17] = tested on: HT-29
[18] = tested on: Hs-578T
[19] = tested on: IGROV-1
[20] = tested on: K562
[21] = tested on: KM12
[22] = tested on: LOX IMVI
[23] = tested on: M14
[24] = tested on: MCF7
[25] = tested on: MDA-MB-231
[26] = tested on: MDA-MB-435
[27] = tested on: MDA-N
[28] = tested on: MOLT-4
[29] = tested on: Malme-3M
[30] = tested on: NCI-H226
[31] = tested on: NCI-H23
[32] = tested on: NCI-H460
[33] = tested on: NCI-H522
[34] = tested on: NCI/ADR-RES
[35] = tested on: OVCAR-3
[36] = tested on: OVCAR-4
[37] = tested on: OVCAR-5
[38] = tested on: OVCAR-8
[39] = tested on: PC-3
[40] = tested on: RPMI-8226
[41] = tested on: RXF 393
[42] = tested on: SF-268
[43] = tested on: SF-295
[44] = tested on: SF-539
[45] = tested on: SK-MEL-28
[46] = tested on: SK-MEL-2
[47] = tested on: SK-MEL-5
[48] = tested on: SK-OV-3
[49] = tested on: SN12C
[50] = tested on: SNB-19
[51] = tested on: SNB-75
[52] = tested on: SR
[53] = tested on: SW-620
[54] = tested on: T47D
[55] = tested on: TK-10
[56] = tested on: U-251
[57] = tested on: UACC-257
[58] = tested on: UACC-62
[59] = tested on: UO-31

Cn1ccnc1Sc1ccc(/C=N/NC(=O)c2ccccc2[N+](=O)[O-])cc1[N+](=O)[O-]
GI50 [1]: 68.9 µM (inactive) | GI50 [2]: 58.9 µM (inactive) | GI50 [3]: > 100 µM (inactive) | GI50 [4]: 70.1 µM (inactive) | GI50 [5]: 83.9 µM (inactive) | GI50 [6]: 49.8 µM (inactive) | GI50 [7]: 42.7 µM (inactive) | GI50 [8]: 56.2 µM (inactive) | GI50 [9]: 66.7 µM (inactive) | GI50 [10]: 40.9 µM (inactive) | GI50 [11]: 36.7 µM (inactive) | GI50 [12]: 65.6 µM (inactive) | GI50 [13]: 45.7 µM | GI50 [14]: 47.1 µM (inactive) | GI50 [15]: > 100 µM (inactive) | GI50 [16]: 18 µM (inactive) | GI50 [17]: 35.6 µM (inactive) | GI50 [18]: > 100 µM (inactive) | GI50 [19]: 37.4 µM (inactive) | GI50 [20]: 40.5 µM (inactive) | GI50 [21]: 49.9 µM (inactive) | GI50 [22]: 37.3 µM (inactive) | GI50 [23]: > 100 µM (inactive) | GI50 [24]: 59.8 µM (inactive) | GI50 [25]: 23.1 µM (inactive) | GI50 [26]: 66.7 µM (inactive) | GI50 [27]: 89.1 µM (inactive) | GI50 [28]: 41.2 µM (inactive) | GI50 [29]: 54.6 µM (inactive) | GI50 [30]: > 100 µM (inactive) | GI50 [31]: 58.6 µM (inactive) | GI50 [32]: 46.5 µM (inactive) | GI50 [33]: 38.5 µM (inactive) | GI50 [34]: > 100 µM (inactive) | GI50 [35]: 98.9 µM (inactive) | GI50 [36]: 57.8 µM (inactive) | GI50 [37]: > 100 µM (inactive) | GI50 [38]: > 100 µM (inactive) | GI50 [39]: 76 µM (inactive) | GI50 [40]: 38.7 µM (inactive) | GI50 [41]: 52.5 µM (inactive) | GI50 [42]: > 100 µM (inactive) | GI50 [43]: 83.8 µM (inactive) | GI50 [44]: > 100 µM (inactive) | GI50 [45]: > 100 µM (inactive) | GI50 [46]: 29 µM (inactive) | GI50 [47]: 46.1 µM (inactive) | GI50 [48]: > 100 µM (inactive) | GI50 [49]: 60.3 µM (inactive) | GI50 [50]: > 100 µM (inactive) | GI50 [51]: > 100 µM (inactive) | GI50 [52]: 36.1 µM (inactive) | GI50 [53]: 98.2 µM (inactive) | GI50 [54]: 40.6 µM (inactive) | GI50 [55]: 65.3 µM (inactive) | GI50 [56]: > 100 µM (inactive) | GI50 [57]: 87.5 µM (inactive) | GI50 [58]: 64.3 µM (inactive) | GI50 [59]: 89.1 µM (inactive)

CCNC(=S)N/N=C(/C)c1cccc(/C(C)=N\NC(=S)NCC)n1
GI50 [1]: 1.5 µM (inactive) | GI50 [2]: 7.52 µM (inactive) | GI50 [3]: 0.719 µM (active) | GI50 [4]: 0.562 µM (active) | GI50 [5]: 10.4 µM (inactive) | GI50 [6]: 1.23 µM (inactive) | GI50 [7]: 0.303 µM (active) | GI50 [8]: 1.08 µM (active) | GI50 [9]: 1.35 µM (inactive) | GI50 [10]: 1.11 µM (active) | GI50 [11]: 3.56 µM (inactive) | GI50 [12]: 0.367 µM (active) | GI50 [13]: 0.493 µM | GI50 [14]: 0.57 µM (active) | GI50 [15]: 1.11 µM (active) | GI50 [16]: 1.69 µM (inactive) | GI50 [17]: 0.315 µM (active) | GI50 [18]: 13.8 µM (inactive) | GI50 [19]: 1.24 µM (inactive) | GI50 [20]: 1.13 µM (inactive) | GI50 [21]: 0.593 µM (active) | GI50 [22]: 0.373 µM (active) | GI50 [23]: 1.2 µM (inactive) | GI50 [24]: 0.689 µM (active) | GI50 [25]: 2.32 µM (inactive) | GI50 [26]: 2.82 µM (inactive) | GI50 [27]: 1.23 µM (inactive) | GI50 [28]: 0.365 µM (active) | GI50 [29]: 2.44 µM (inactive) | GI50 [30]: 0.333 µM (active) | GI50 [31]: 4.06 µM (inactive) | GI50 [32]: 0.31 µM (active) | GI50 [33]: 1.15 µM (inactive) | GI50 [34]: 0.748 µM (active) | GI50 [35]: 0.366 µM (active) | GI50 [36]: 2.14 µM (inactive) | GI50 [37]: 0.873 µM (active) | GI50 [38]: 0.345 µM (active) | GI50 [39]: 0.614 µM (active) | GI50 [40]: 0.847 µM (active) | GI50 [41]: 3.44 µM (inactive) | GI50 [42]: 0.59 µM (active) | GI50 [43]: 0.488 µM (active) | GI50 [44]: 1.27 µM (inactive) | GI50 [45]: 2.38 µM (inactive) | GI50 [46]: 3.9 µM (inactive) | GI50 [47]: 0.774 µM (active) | GI50 [48]: 2.63 µM (inactive) | GI50 [49]: 1.46 µM (inactive) | GI50 [50]: 5.48 µM (inactive) | GI50 [51]: 14.9 µM (inactive) | GI50 [52]: 0.184 µM (active) | GI50 [53]: 0.486 µM (active) | GI50 [54]: 2.72 µM (inactive) | GI50 [55]: 0.771 µM (active) | GI50 [56]: 0.553 µM (active) | GI50 [57]: 4.16 µM (inactive) | GI50 [58]: 1.09 µM (active) | GI50 [59]: 0.968 µM (active)
